The target of test [1] is T1, flag-tagged HIF1α (AA 786-826) / His6-tagged p300 (AA 323-423) complex (Homo sapiens, UniProt Q09472).
T1 construct: His6-tagged p300 (AA 323-423); made in house; host or cells: E. coli (pETDuet vector)
As to the kind of experiment: HIF1α p300 displacement assay (TR FRET, +CHAPS). The test is classed as binding. To be noted: read-out: IC50 (nM) (HIF1α_p300 Displacement + CHAPS). An outline of the steps: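 In this TR-FRET displacement format, peptides compete HIF1α C-terminal transactivation domain off p300-CH. They were preincubated 1 h at room temperature with 300 nM complex in HEPES pH 7.4/NaCl buffer with 7.5 mM CHAPS and 1 mM DTT. Anti-His-D2 (4 nM) and anti-Flag-K (0.5 μM) followed for 2 h, and a one-site fit of the fluorescence ratio gave IC50.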
Background: TR-FRET usually uses a lanthanide donor and a delayed reading to cut background.

Another test has as its system HRE-bla ME-180 cells. The test is described as follows: Reporter gene assay (HRE-bla ME-180 HIF reporter, GeneBLAzer). The test is classed as cell-based, human. The note with it: for EC50: 24 hour normoxia. Summed up:
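A FRET β-lactamase readout of HIF transcription was used. After compound treatment in 0.3% DMSO/media under normoxic conditions, 20 μl of 6× LiveBLAzer-FRET B/G (CCF4-AM) substrate was added. Plates sat 3 hr at room temperature in the dark and were read at 409 Ex/460Em and 409Ex/530Em on a Synergy 2. Inhibition was compared against DMSO vehicle controls, with chetomin as positive control.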

Consider 9 compounds from US20190225650A1, “PEPTIDOMIMETIC MACROCYCLES AND USE THEREOF IN REGULATING HIF1ALPHA” (AILERON THERAPEUTICS, INC., priority 2013, published 2019).

Bridge positions count the residues as written; N and C are the ends. Square brackets hold non-standard residues; d marks the D form. Peptide text beside a SMILES is read from it. S5 = C=CCCC[C@](C)(N)C(=O)O; Nle = CCCC[C@H](N)C(=O)O

What is called IC50 is the point on the concentration scale where inhibition reaches its midpoint. The term EC50 denotes the midpoint of the concentration-response curve. Consider `CCCC[C@H](NC(=O)[C@H](CCC(=O)O)NC(=O)[C@@H](NC(=O)[C@@H](NC(=O)[C@H](CC(C)C)NC(=O)[C@]1(C)CCCC=CCCC[C@](C)(NC(=O)[C@H](CCC(=O)O)NC(=O)[C@H](CC(=O)O)NC(=O)[C@@H](NC(=O)[C@H](Cc2ccccc2)NC(C)=O)[C@@H](C)CC)C(=O)N[C@@H](C(C)C)C(=O)N[C@@H](CC(C)C)C(=O)N[C@@H](CCCC)C(=O)N1)C(C)C)[C@@H](C)CC)C(=O)NCC(=O)N[C@@H](CC(C)C)C(=O)N[C@@H](CC(=O)O)C(=O)N[C@@H](CCCNC(=N)N)C(=O)N[C@H](C(=O)N[C@@H](CCCCN)C(=O)N[C@@H](CCC(=O)O)C(=O)N[C@@H](CC(C)C)C(=O)N1CCC[C@H]1C(=O)N[C@@H](CCC(=O)O)C(=O)N[C@@H](CC(C)C)C(=O)N[C@@H](Cc1c[nH]c2ccccc12)C(=O)N[C@@H](CC(C)C)C(N)=O)[C@@H](C)CC` [SP-105] (Ac-FIDE[S5]VL[Nle][S5]LVIE[Nle]GLDRIKELPELWL-NH2; staple 5-9), for which the half-maximal inhibitory concentration (IC50) in test [1] was at most 200 nM. In addition, in the test on HRE-bla ME-180 cells, the EC50 was above 30 µM.

For `CC[C@H](C)[C@H](NC(=O)[C@H](Cc1ccccc1)NC(C)=O)C(=O)N[C@@H](CC(=O)O)C(=O)N[C@@H](CCC(=O)O)C(=O)N[C@@]1(C)CCCC=CCCC[C@@](C)(C(=O)N[C@@H](CC(C)C)C(=O)N[C@H](C(=O)N[C@H](C(=O)N[C@@H](CCC(=O)O)C(=O)N[C@@H](CCSC)C(=O)N[C@@H](C)C(=O)N[C@@H](CC(C)C)C(=O)N[C@@H](CC(=O)O)C(=O)N[C@@H](CCCNC(=N)N)C(=O)N[C@H](C(=O)N[C@@H](CCCCN)C(=O)N[C@@H](CCC(=O)O)C(=O)N[C@@H](CC(C)C)C(=O)N2CCC[C@H]2C(=O)N[C@@H](CCC(=O)O)C(=O)N[C@@H](CC(C)C)C(=O)N[C@@H](Cc2c[nH]c3ccccc23)C(=O)N[C@@H](CC(C)C)C(N)=O)[C@@H](C)CC)[C@@H](C)CC)C(C)C)NC(=O)[C@H](CCSC)NC(=O)[C@H](CC(C)C)NC(=O)[C@H](C(C)C)NC1=O` [SP-107] (Ac-FIDE[S5]VLM[S5]LVIEMALDRIKELPELWL-NH2; staple 5-9), the half-inhibitory concentration (IC50) in test [1] was at most 200 nM. The EC50 with HRE-bla ME-180 cells is above 30 µM.

Take `CCCC[C@H](NC(=O)[C@H](CCC(=O)O)NC(=O)[C@@H](NC(=O)[C@@H](NC(=O)[C@H](CC(C)C)NC(=O)[C@]1(C)CCCC=CCCC[C@](C)(NC(=O)[C@H](CCC(=O)O)NC(=O)[C@H](C)NC(=O)[C@@H](NC(=O)[C@H](Cc2ccccc2)NC(C)=O)[C@@H](C)CC)C(=O)N[C@@H](C(C)C)C(=O)N[C@@H](CC(C)C)C(=O)N[C@@H](CCCC)C(=O)N1)C(C)C)[C@@H](C)CC)C(=O)N[C@@H](C)C(=O)N[C@@H](CC(C)C)C(=O)N[C@@H](CC(=O)O)C(=O)N[C@@H](C)C(=O)N[C@H](C(N)=O)[C@@H](C)CC` [SP-120] (Ac-FIAE[S5]VL[Nle][S5]LVIE[Nle]ALDAI-NH2; staple 5-9): in test [1], the 50% inhibitory concentration (IC50) is at most 200 nM. In the test on HRE-bla ME-180 cells, the “18 h Avg % max inhibition at top conc (HIF Rptr-24 hrs normoxia) (μM)” value (shortened to “18 h Avg % max inhibition at top conc”) is reported as “+ (<10: +)” and the 50% effective concentration (EC50) is above 30 µM.

Take `CCCC[C@H](NC(=O)[C@H](C)NC(=O)[C@@H](NC(=O)[C@@H](NC(=O)[C@H](CC(C)C)NC(=O)[C@]1(C)CCCC=CCCC[C@](C)(NC(=O)[C@H](CCC(=O)O)NC(=O)[C@H](C)NC(=O)[C@@H](NC(=O)[C@H](Cc2ccccc2)NC(C)=O)[C@@H](C)CC)C(=O)N[C@@H](C(C)C)C(=O)N[C@@H](CC(C)C)C(=O)N[C@@H](CCCC)C(=O)N1)C(C)C)[C@@H](C)CC)C(=O)N[C@@H](C)C(=O)N[C@@H](CC(C)C)C(=O)N[C@@H](CC(=O)O)C(=O)N[C@@H](C)C(=O)N[C@H](C(N)=O)[C@@H](C)CC` [SP-121] (Ac-FIAE[S5]VL[Nle][S5]LVIA[Nle]ALDAI-NH2; staple 5-9): in test [1], the half-maximal inhibitory concentration (IC50) was 400 to 700 nM. For the same compound, the 50% effective concentration (EC50) in the test with HRE-bla ME-180 cells is above 30 µM.

Consider `CCCC[C@H](NC(=O)[C@H](C)NC(=O)[C@@H](NC(=O)[C@@H](NC(=O)[C@H](CC(C)C)NC(=O)[C@]1(C)CCCC=CCCC[C@](C)(NC(=O)[C@H](CCC(=O)O)NC(=O)[C@H](CC(=O)O)NC(=O)[C@@H](NC(=O)[C@H](Cc2ccccc2)NC(C)=O)[C@@H](C)CC)C(=O)N[C@@H](C(C)C)C(=O)N[C@@H](CC(C)C)C(=O)N[C@@H](CCCC)C(=O)N1)C(C)C)[C@@H](C)CC)C(=O)N[C@@H](C)C(=O)N[C@@H](CC(C)C)C(N)=O` [SP-122] (Ac-FIDE[S5]VL[Nle][S5]LVIA[Nle]AL-NH2; staple 5-9), for which the concentration for half-maximal inhibition (IC50) in test [1] was in the range of 200 to 400 nM. In the test on HRE-bla ME-180 cells, the “18 h Avg % max inhibition at top conc” value is reported as “++ (≤10 but <25: ++)” and the EC50 was above 30 µM.

On to `CCCC[C@H](NC(=O)[C@H](CCCNC(=N)N)NC(=O)[C@H](CC(=O)O)NC(=O)[C@H](CC(C)C)NC(=O)[C@H](C)NC(=O)[C@H](CCCC)NC(=O)[C@H](C)NC(=O)[C@@H](NC(=O)[C@@H](NC(=O)[C@H](CC(C)C)NC(=O)[C@]1(C)CCCC=CCCC[C@](C)(NC(=O)[C@H](CCC(=O)O)NC(=O)[C@H](CC(=O)O)NC(=O)[C@@H](NC(=O)[C@H](Cc2ccccc2)NC(C)=O)[C@@H](C)CC)C(=O)N[C@@H](C(C)C)C(=O)N[C@@H](CC(C)C)C(=O)N[C@@H](CCCC)C(=O)N1)C(C)C)[C@@H](C)CC)C(N)=O` [SP-125] (Ac-FIDE[S5]VL[Nle][S5]LVIA[Nle]ALDR[Nle]-NH2; staple 5-9), for which the half-maximal inhibitory concentration (IC50) in test [1] was in the range of 200 to 400 nM. In the test with HRE-bla ME-180 cells, the “18 h Avg % max inhibition at top conc” value is “+ (<10: +)” and the EC50 was above 30 µM.

For the compound `CCCC[C@H](NC(=O)[C@H](C)NC(=O)[C@H](C)NC(=O)[C@H](CCCC)NC(=O)[C@H](C)NC(=O)[C@H](CCCC)NC(=O)[C@H](CC(C)C)NC(=O)[C@@H](NC(=O)[C@@H](NC(=O)[C@H](CC(C)C)NC(=O)[C@]1(C)CCCC=CCCC[C@](C)(NC(=O)[C@H](CCC(=O)O)NC(=O)[C@H](CC(=O)O)NC(=O)[C@@H](NC(=O)[C@H](Cc2ccccc2)NC(C)=O)[C@@H](C)CC)C(=O)N[C@@H](C(C)C)C(=O)N[C@@H](CC(C)C)C(=O)N[C@@H](CCCC)C(=O)N1)C(C)C)[C@@H](C)CC)C(N)=O` [SP-126] (Ac-FIDE[S5]VL[Nle][S5]LVIL[Nle]A[Nle]AA[Nle]-NH2; staple 5-9), the IC50 in test [1] fell in the range of 200 to 400 nM. In the test with HRE-bla ME-180 cells, the “18 h Avg % max inhibition at top conc” value is given as “++++ (≥50: ++++)” and the EC50 was 15 to 30 µM.

For `CCCC[C@H](NC(=O)[C@H](CCC(=O)O)NC(=O)[C@@H](NC(=O)[C@@H](NC(=O)[C@H](CC(N)=O)NC(=O)[C@]1(C)CCCC=CCCC[C@](C)(NC(=O)[C@H](C)NC(=O)[C@H](CC(=O)O)NC(=O)[C@@H](NC(=O)[C@H](Cc2ccccc2)NC(C)=O)[C@@H](C)CC)C(=O)N[C@@H]([C@@H](C)O)C(=O)N[C@@H](CC(C)C)C(=O)N[C@@H](CCCC)C(=O)N1)C(C)C)[C@@H](C)CC)C(=O)N[C@@H](C)C(=O)N[C@@H](CC(C)C)C(N)=O` [SP-151] (Ac-FIDA[S5]TL[Nle][S5]NVIE[Nle]AL-NH2; staple 5-9), the IC50 in test [1] lay within 400 to 700 nM. Besides, in the test on HRE-bla ME-180 cells, the “18 h Avg % max inhibition at top conc” value is recorded as “++++ (≥50: ++++)” and the EC50 was at most 5 µM.

As for `CCCC[C@H](NC(=O)[C@H](CCCNC(=N)N)NC(=O)[C@@H](NC(=O)[C@@H](NC(=O)[C@H](CC(C)C)NC(=O)[C@]1(C)CCCC=CCCC[C@](C)(NC(=O)[C@H](CCC(=O)O)NC(=O)[C@H](CC(=O)O)NC(=O)[C@@H](NC(=O)[C@H](Cc2ccccc2)NC(C)=O)[C@@H](C)CC)C(=O)N[C@@H](C(C)C)C(=O)N[C@@H](CC(C)C)C(=O)N[C@@H](CCCC)C(=O)N1)C(C)C)[C@@H](C)CC)C(=O)N[C@@H](C)C(=O)N[C@@H](CC(C)C)C(N)=O` [SP-157] (Ac-FIDE[S5]VL[Nle][S5]LVIR[Nle]AL-NH2; staple 5-9), the IC50 in test [1] is above 700 nM. In the test with HRE-bla ME-180 cells, the “18 h Avg % max inhibition at top conc” value is reported as “+ (<10: +)” and the concentration for a half-maximal effect (EC50) is above 30 µM.
